Data set [1] has as its system DA neurons in zebrafish. Nature of the data set: Anti-TH whole-mount immunostaining, 6-OHDA-induced DA neuron loss. Conditions: 10 μM co-treatment, 250 μM 6-OHDA, 2 days. In kind it is in vivo. How it is done:
The wild type zebrafish was used for this study.
Zebrafish at one dpf were exposed to 250 μM 6-OHDA in the presence or absence of 10 μM Schi A or 3 μM nomifensine (Nom, a DAT (dopamine transporter) inhibitor used as a positive control) for 2 days. Then zebrafish were collected for immunostaining to detect the DA neurons. Zebrafish were fixed in 4% paraformaldehyde in PBS for 30 min, rinsed, and stored at −20° C. in 100% MtOH. Whole-mount immunostaining was done by standard methods (Zhang, Cheang et al. 2011). Briefly, paraformaldehyde fixed samples were blocked (2% goat serum and 0.1% BSA in PBST,) for 1 h at room temperature. A mouse monoclonal anti-tyrosine hydroxylase antibody (1:200 diluted in blocking buffer) was used as the primary antibody and incubated overnight with the sample at 4° C. […] Semi-quantification TH^+ cells were assessed by an investigator blinded to drug treatment history of zebrafish using Image-Pro Plus 6.0 software (Media Cybernetics, Silver Spring, Md., USA). Results are expressed as percentage of area of TH^+ cells in untreated control group.
To further evaluate the neuroprotective effect of SchiA in vivo, the inventors examined the DA neurons in zebrafish by whole-mount immunofluorescent staining with an antibody against tyrosine hydroxylase (TH). […] Data is expressed as percentage of the control group. […]

Data set [2] in a line: Blood brain barrier experiment. Type of data set: in vivo, rat. Here is the method: To investigate the capability of permeation of blood brain barrier (BBB). On the experimental day, heart perfusion was chosen to clear blood interference at brain under 10% chloralic hydras (i.p. 250 mg/kg) anesthesia, and brain was collected at scheduled time after dosing.
Brain tissues were thawed and homogenized in precooled saline (at the 1:2 g:ml ratio). 250 μl of homogenized solution was added 200 μl acetonitrile and 150 μl methanol. After vortexing for 20 s, centrifugations at 12,000 rpm for 10 min were for the separation. The denatured protein was separated and the supernatant was collected and filtered through a 0.22 μm membrane. A 20 μl volume of the supernatant was injected into HPLC for analysis.
Quantitative analysis of SchiA was completed on an Agilent series 1260 HPLC apparatus (Agilent Technologies, Santa Clara, Calif., USA) equipped with a vacuum degasser, a quaternary pump, a manual sampler and an ultraviolet detector. RP Phenonenex C-18 column (250 mm×4.6 mm, 5 μm) was used to separate at 35° C. with a mobile phase of water and methanol (83:17, v/v). The flow rate was 1 ml/min. The monitoring wavelength of SchiA was 230 nm.
And then non-compartmental model of DAS 2.0 program was chosen to calculate the major pharmacokinetic parameters.
The treatment of brain disorders drugs should pass through the blood-brain barrier (BBB) to regulate certain receptors in the CNS for producing effect. Thus the inventors examined whether SchiA could pass BBB. […] Generally, drug distribution was depends on the free drug concentration in plasma which could affect the supply to the target disuse. […] P-gp, functioning as an ATP-dependent drug pump, efficiently extrudes intracellular drugs out of cells, especially anticancer drugs. After oral administrated to plasma, lots of SchiA were combined at intestines and hardly entered into brain by passing through the barrier of P-gp. But after an i.v. bolus injection, SchiA which liked an impact was directly entered into systemic circulation and P-gp was saturated with SchiA speedily and SchiA couldn't stay at brain as long as plasma despite the concentration was considerable. Therefore, it is rationalized the SchiA passed through BBB caused by i.v. and it has been hypothesized that P-gp is the major determinant of SchiA pharmacokinetics.

The test system of data set [3] is SH-SY5Y cells. Briefly: MTT cytotoxicity of the five lignans. In kind it is cell-based. How it is done: Human neuroblastoma SH-SY5Y cells were purchased from the American Type Culture Collection (ATCC, Manassas, Va., USA) and cultured in a humidified 5% (v/v) CO2 atmosphere in 37° C. in Dulbecco's Modified Eagle Medium (DMEM) (Life technologies, NY, USA) supplemented with 10% FBS, 1% penicillin (100 U/mL) and streptomycin (100 μg/mL). All experiments were carried out 48 h after the cells were seeded.
Cell viability was determined by 3-(4,5-dimethyl-2-thiazolyl) 2,5-diphenyl-2H-tetrazolium bromide (MTT) assay (Sigma-Aldrich, USA). SH-SY5Y cells were seeded in 96-well plates (1×10^4 cells/well) for 48 h. SH-SY5Y cells were pre-treated with different concentrations of the five lignans (i.e. Schizandrin A, Schizandrin B, SC, Schizandrol A and SchiA) for 12 h and the cell viability was checked by MTT assay. Otherwise, SH-SY5Y cells were pre-treated with different concentrations of the five lignans for 12 h and then exposed to 400 μM 6-OHDA for 4 h. Cells were incubated at 37° C. for 4 h in 0.5 mg/mL MTT solution (prepared in serum free DMEM medium). The medium was then removed, and 100 μL of DMSO was added to each well to dissolve the violet-formazan crystals. The absorbance at 570 nm with 655 nm as a reference wavelength was measured by a multi-label counter (Wallac VICTOR3TMV, Perkin Elmer, Netherlands). Cell viability was expressed as a percentage of the value of the cells without 6-OHDA treatment. The LC50 and EC50 were calculated by GraphPad Prism V5.0 (GraphPad Software, Inc., San Diego, Calif.).
To evaluate the cytotoxicity of five selected lignans of S. chinensis, SH-SY5Y cells were treated with various concentrations of the tested compounds for 12 h and the cell viability was measured using the MTT assay.
To evaluate the cytotoxicity of five selected lignans of S. chinensis, SH-SY5Y cells were treated with various concentrations of the tested compounds for 12 h and the cell viability was measured using the MTT assay. […] To further study the neuroprotective activities of the five lignans in vitro, cells were treated with various concentrations of the tested compounds for 12 h before exposed to MPP^+. […] Values represent mean±S.D. ###P<0.005 versus control group; *p<0.05, **p<0.01 and *** p<0.005 versus MPP group. […] The therapeutic index of SchiA and SC were 14.9 and 8.8, respectively.

For orientation: CC50 means the concentration at which the toxic effect on the cells reaches its halfway point. Consider `COc1cc2c(c(OC)c1OC)-c1c(cc3c(c1OC)OCO3)C[C@H](C)[C@](C)(O)[C@H]2OC(=O)c1ccccc1` [SchiA, Schisantherin A], for which the “6-OHDA-induced dopaminergic neuron loss (area of TH+ cells)” value in data set [1] is on record as “attenuate the dopaminergic neuron loss induced by 6-OHDA almost to the normal level”. For the same molecule, the “concentration in brain as % of concentration in plasma” value in data set [2] (half an hour post-i.v. bolus injection) was determined as 54.5%. Further, in data set [2] (i.v.), the “ability to pass the BBB in vivo” value is on record as “able to traverse the BBB in vivo”. Also, the “detection in brain samples” value in data set [2] (i.v., up to 6 h) is “wasn't detected”. In addition, the detection in brain result in data set [2] (oral administration) is reported as “wasn't detected”. In data set [3], this molecule showed a CC50 of 121 µM.

The values are drawn from patent US20150366839A1, “Schisantherin A for the treatment of neurodegenerative diseases” (priority 2014, published 2015).
